# Assay results taken from patent US10766869B2, “Triazoles for the treatment of demyelinating dieases” (Vertex Pharmaceuticals Incorporated, priority 2015, dated 2020).
# Like-named read-outs stand apart in the source and are kept apart here.
# Test system: primary rat mixed cortical cells
# Experiment: In vitro myelination assay (MBP positive myelin strands, fold myelin pixels above background)
# Format: cell-based
# Conditions: Rattus norvegicus; for fold induction at 1 µM: 1.0 μM compound; for fold induction at 10 µM: 10.0 μM compound
# Method in brief: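 Fourteen-day treatment of primary P1 rat mixed cortical cultures, re-dosed at days 6 and 10, at 1.0 μM and 10.0 μM. MBP immunofluorescence was imaged at 10× and myelin strands quantified by software, normalised to untreated wells as fold above background.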
# [1] = relative to baseline of no added compound, read-out: Fold myelin pixels above background
# [2] = read-out: Fold myelin pixels above background relative to baseline of no added compound
# [3] = relative to baseline of no added compound, read-out: Fold myelin pixels above background, 1.0 μM
# [4] = relative to baseline of no added compound, read-out: Fold myelin pixels above background, 10.0 μM
SMILES,fold induction at 1 µM [1],fold induction at 10 µM [1],fold induction at 1 µM [2],fold induction at 10 µM [2],other results
"Cc1cc(Nc2ncn(-c3cc(F)cc(F)c3)n2)cc(N2CC(N3CCCC3)C2)c1 [Compound 510, 1-(3,5-difluorophenyl)-N-[3-methyl-5-(3-pyrrolidin-1-ylazetidin-1-yl)phenyl]-1,2,4-triazol-3-amine]",1 to 10,10 to 100,–,–,–
"Cc1cc(Nc2ncn(-c3cc(F)cc(F)c3)n2)cc(NC2CCOCC2N2CCCC2)c1 (stereo not shown) [Compound 884, N3-[1-(3,5-difluorophenyl)-1,2,4-triazol-3-yl]-5-methyl-N1-(3-pyrrolidin-1-yltetrahydropyran-4-yl)benzene-1,3-diamine]",–,–,1 to 10,≤ 1,–
"Cc1cc(Nc2ncn(-c3cc(F)cc(F)c3)n2)cc(C2(F)CCN(C3COC3)C2)c1 (stereo not shown) [Compound 193, 1-(3,5-difluorophenyl)-N-[3-[3-fluoro-1-(oxetan-3-yl)pyrrolidin-3-yl]-5-methyl-phenyl]-1,2,4-triazol-3-amine]",–,–,–,–,fold induction at 1 µM [3]: 100 to 1000; fold induction at 10 µM [4]: 100 to 1000
"Clc1cc(Nc2ncn(-c3ccccc3)n2)cc(N2CCOCC2)c1 [Compound 335, N-(3-chloro-5-morpholino-phenyl)-1-phenyl-1,2,4-triazol-3-amine]",–,–,–,–,fold induction at 1 µM [3]: 1000 to 10000; fold induction at 10 µM [4]: 10 to 100
"Cc1cc(NCC(N2CCOCC2)C(F)(F)F)cc(Nc2ncn(-c3cc(F)cc(F)c3)n2)c1 (stereo not shown) [Compound 899, N1-[1-(3,5-difluorophenyl)-1,2,4-triazol-3-yl]-5-methyl-N3-(3,3,3-trifluoro-2-morpholino-propyl)benzene-1,3-diamine]",–,–,1 to 10,1 to 10,–
"Fc1cc(F)cc(-n2cnc(Nc3cc(C(F)F)cc(N4CC(N5CCOCC5)C4)c3)n2)c1 [Compound 804, N-[3-(difluoromethyl)-5-(3-morpholinoazetidin-1-yl)phenyl]-1-(3,5-difluorophenyl)-1,2,4-triazol-3-amine]",–,–,10 to 100,≤ 1,–
"CC(=O)OCC(C)(COC(C)=O)N1CCN(c2cc(C)cc(Nc3ncn(-c4cc(F)cc(F)c4)n3)c2)CC1 [Compound 505, [3-acetoxy-2-[4-[3-[[1-(3,5-difluorophenyl)-1,2,4-triazol-3-yl]amino]-5-methyl-phenyl]piperazin-1-yl]-2-methyl-propyl] acetate]",10 to 100,≤ 1,–,–,–
"CCOCC(O)CN1CCN(c2cc(C)cc(Nc3ncn(-c4cc(F)cc(F)c4)n3)c2)CC1 (stereo not shown) [Compound 900, 1-[4-[3-[[1-(3,5-difluorophenyl)-1,2,4-triazol-3-yl]amino]-5-methyl-phenyl]piperazin-1-yl]-3-ethoxy-propan-2-ol]",–,–,1 to 10,≤ 1,–
"CCc1cc(Nc2ncn(-c3ccc(C#N)cc3)n2)cc(N2CCN(C3COC3)CC2)c1 [Compound 762, 4-[3-[3-ethyl-5-[4-(oxetan-3-yl)piperazin-1-yl]anilino]-1,2,4-triazol-1-yl]benzonitrile]",≤ 1,≤ 1,–,–,–
"Fc1cc(Nc2ncn(-c3ccc(F)c(F)c3)n2)cc(N2CCOCC2)c1 [Compound 440, 1-(3,4-difluorophenyl)-N-(3-fluoro-5-morpholino-phenyl)-1,2,4-triazol-3-amine]",10 to 100,10 to 100,–,–,–
"COc1nccc(-n2cnc(Nc3cc(C4CC4)cc(N4CCN(C5COC5)CC4)c3)n2)n1 [Compound 277, N-[3-cyclopropyl-5-[4-(oxetan-3-yl)piperazin-1-yl]phenyl]-1-(2-methoxypyrimidin-4-yl)-1,2,4-triazol-3-amine]",–,–,–,–,fold induction at 1 µM [3]: 10 to 100; fold induction at 10 µM [4]: 100 to 1000
"Cc1cc(-n2cnc(Nc3cc(C4CC4)cc(N4CCN(C5COC5)CC4)c3)n2)nc(C)n1 [Compound 129, N-[3-cyclopropyl-5-[4-(oxetan-3-yl)piperazin-1-yl]phenyl]-1-(2,6-dimethylpyrimidin-4-yl)-1,2,4-triazol-3-amine]",–,–,–,–,fold induction at 1 µM [3]: ≤ 1; fold induction at 10 µM [4]: ≤ 1
"Cc1cc(NCCOC2CCC2)cc(Nc2ncn(-c3cc(F)cc(F)c3)n2)c1 [Compound 1008, N3-[2-(cyclobutoxy)ethyl]-N1-[1-(3,5-difluorophenyl)-1,2,4-triazol-3-yl]-5-methyl-benzene-1,3-diamine]",–,–,10 to 100,1 to 10,–
"Cc1cc(Nc2ncn(-c3cc(F)cc(F)c3)n2)cc(N2CC(N3C[C@@H](C)O[C@@H](C)C3)C2)c1 [Compound 618, 1-(3,5-difluorophenyl)-N-[3-[3-[(2R,6S)-2,6-dimethylmorpholin-4-yl]azetidin-1-yl]-5-methyl-phenyl]-1,2,4-triazol-3-amine]",10 to 100,10 to 100,–,–,–
"Cc1cc(Nc2ncn(-c3cc(F)cc(F)c3)n2)cc(N2CCC(OCCN(C)C)CC2)c1 [Compound 933, 1-(3,5-difluorophenyl)-N-[3-[4-[2-(dimethylamino)ethoxy]-1-piperidyl]-5-methyl-phenyl]-1,2,4-triazol-3-amine]",–,–,1 to 10,≤ 1,–
"Cc1cc(Nc2ncn(-c3cc(F)cc(F)c3)n2)nc(N2CCC(C)(O)CC2)c1 [Compound 569, 1-[6-[[1-(3,5-difluorophenyl)-1,2,4-triazol-3-yl]amino]-4-methyl-2-pyridyl]-4-methyl-piperidin-4-ol]",1 to 10,10 to 100,–,–,–
"FC(F)c1cc(Nc2ncn(-c3cnccn3)n2)nc(N2CCN(C3COC3)CC2)c1 [Compound 576, 4-(difluoromethyl)-6-[4-(oxetan-3-yl)piperazin-1-yl]-N-(1-pyrazin-2-yl-1,2,4-triazol-3-yl)pyridin-2-amine]",10 to 100,10 to 100,–,–,–
"CC(=O)N1CCN(c2cc(Nc3ncn(-c4ccccc4)n3)cc(C(F)F)c2)CC1 [Compound 144, 1-[4-[3-(difluoromethyl)-5-[(1-phenyl-1,2,4-triazol-3-yl)amino]phenyl]piperazin-1-yl]ethanone]",–,–,–,–,fold induction at 1 µM [3]: 100 to 1000; fold induction at 10 µM [4]: ≤ 1
"Cc1cc(NCC2CN(C(=O)OC(C)(C)C)C2)cc(Nc2ncn(-c3cc(F)cc(F)c3)n2)c1 [Compound 1084, tert-butyl 3-[[3-[[1-(3,5-difluorophenyl)-1,2,4-triazol-3-yl]amino]-5-methyl-anilino]methyl]azetidine-1-carboxylate]",–,–,10 to 100,1 to 10,–
"Fc1cc(-n2cnc(Nc3cc(C4CC4)cc(N4CCN(C5COC5)CC4)c3)n2)ccn1 [Compound 184, N-[3-cyclopropyl-5-[4-(oxetan-3-yl)piperazin-1-yl]phenyl]-1-(2-fluoro-4-pyridyl)-1,2,4-triazol-3-amine]",–,–,–,–,fold induction at 1 µM [3]: 10 to 100; fold induction at 10 µM [4]: 1 to 10
"Cc1cc(Nc2ncn(-c3cc(F)cc(F)c3)n2)nc(NC2CCOC2)c1 (stereo not shown) [Compound 614, N6-[1-(3,5-difluorophenyl)-1,2,4-triazol-3-yl]-4-methyl-N2-tetrahydrofuran-3-yl-pyridine-2,6-diamine]",1 to 10,1 to 10,–,–,–
"FC(F)(F)c1cc(Nc2ncn(-c3cnccn3)n2)nc(N2CCN(C3COC3)CC2)c1 [Compound 712, 6-[4-(oxetan-3-yl)piperazin-1-yl]-N-(1-pyrazin-2-yl-1,2,4-triazol-3-yl)-4-(trifluoromethyl)pyridin-2-amine]",1 to 10,1 to 10,–,–,–
"CCc1cc(Nc2ncn(-c3cc(C)ccc3F)n2)cc(N2CCN(C3COC3)CC2)c1 [Compound 338, N-[3-ethyl-5-[4-(oxetan-3-yl)piperazin-1-yl]phenyl]-1-(2-fluoro-5-methyl-phenyl)-1,2,4-triazol-3-amine]",–,–,–,–,fold induction at 1 µM [3]: 1 to 10; fold induction at 10 µM [4]: 10 to 100
"CN1CCN(c2cc(Nc3ncn(-c4ccc(F)c(F)c4)n3)cc(C(F)(F)F)c2)CC1 [Compound 412, 1-(3,4-difluorophenyl)-N-[3-(4-methylpiperazin-1-yl)-5-(trifluoromethyl)phenyl]-1,2,4-triazol-3-amine]",1000 to 10000,≤ 1,–,–,–
"Cc1cc(Nc2ncn(-c3ccc(F)c(F)c3)n2)nc(N2CC(N3CCOCC3)C2)c1 [Compound 501, N-[1-(3,4-difluorophenyl)-1,2,4-triazol-3-yl]-4-methyl-6-(3-morpholinoazetidin-1-yl)pyridin-2-amine]",1 to 10,≤ 1,–,–,–
"Cc1cc(Nc2ncn(-c3ccc(F)c(F)c3)n2)cc(N2CC(N3CCCOCC3)C2)c1 [Compound 659, 1-(3,4-difluorophenyl)-N-[3-methyl-5-[3-(1,4-oxazepan-4-yl)azetidin-1-yl]phenyl]-1,2,4-triazol-3-amine]",10 to 100,10 to 100,–,–,–
"Cc1cc(Nc2ncn(-c3cc(F)cc(F)c3)n2)nc(C2CCN(C3COC3)CC2)c1 [Compound 801, N-[1-(3,5-difluorophenyl)-1,2,4-triazol-3-yl]-4-methyl-6-[1-(oxetan-3-yl)-4-piperidyl]pyridin-2-amine]",–,–,1 to 10,1 to 10,–
"Cc1cc(Nc2ncn(-c3ccccc3)n2)c(F)c(OC2CCOC2)c1 (stereo not shown) [Compound 907, N-(2-fluoro-5-methyl-3-tetrahydrofuran-3-yloxy-phenyl)-1-phenyl-1,2,4-triazol-3-amine]",–,–,10 to 100,100 to 1000,–
"Cc1cc(Nc2ncn(-c3cc(F)cc(F)c3)n2)cc([C@@]2(C)CNC(=O)O2)c1 (single isomer, unassigned) [Compound 679]",10 to 100,1 to 10,–,–,–
